For 31 compounds, melting point and EC50 results are on record in patent US10370371B2, “Substituted pyrimidine Bmi-1 inhibitors” (PTC Therapeutics, Inc., priority 2013, dated 2019).

The subject of data set [1] is Bmi-1 protein. As to the kind of experiment: Sandwich ELISA Assay (Bmi-1 protein level in HT-1080 cells). Format: cell-based. The essentials: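 HT-1080 cells were treated with compounds (0.5% DMSO final) for 40-48 h at 37 °C. Lysates were assayed by sandwich ELISA: mouse anti-Bmi-1 capture, rabbit anti-Bmi-1 and HRP anti-rabbit detection, TMB read at OD450 (OD570 reference). Levels were quantified against a recombinant GST-Bmi-1 standard curve (125-8000 pg/mL).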
Background: In an ELISA, binding on a coated surface is turned into a signal by an enzyme label.

For orientation: melting point means the temperature, or range, at which the solid turns liquid. The term EC50 denotes the concentration giving half of the maximal effect. The low end stands for a more potent agent, the high end for a less potent agent. `Cc1nc2ccc(F)cn2c1-c1cc(N)nc(Nc2ccc(OC(F)F)cc2)n1` [Cpd 2, N^2-[4-(difluoromethoxy)phenyl]-6-(6-fluoro-2-methylimidazo[1,2-a]pyridin-3-yl)pyrimidine-2,4-diamine] returned a melting point of 189 to 190 °C. In data set [1], the EC50 lay within 1 to 10 nM.

Take `Cc1nc2ccc(F)cc2n1-c1cc(N)nc(Nc2ccc(OC(F)F)cc2)n1` [Cpd 5, N^2-[4-(difluoromethoxy)phenyl]-6-(6-fluoro-2-methyl-1H-benzimidazol-1-yl)pyrimidine-2,4-diamine]: the melting point was 141 to 143 °C. Besides, in data set [1], the EC50 lay in the range of 10 to 100 nM.

Consider `CCc1nc2ccc(F)cc2n1-c1cc(N)nc(Nc2ccc(OC(F)F)c(F)c2)n1` [Cpd 11, N^2-[4-(difluoromethoxy)-3-fluorophenyl]-6-(2-ethyl-6-fluoro-1H-benzimidazol-1-yl)pyrimidine-2,4-diamine], for which the melting point was in the range of 159 to 161 °C. Besides, the EC50 in data set [1] was in the range of 10 to 100 nM.

The compound `Nc1cc(-n2c(C3CC3)nc3ccc(F)cc32)nc(Nc2ccc(OC(F)F)c(F)c2)n1` [Cpd 12, 6-(2-cyclopropyl-6-fluoro-1H-benzimidazol-1-yl)-N^2-[4-(difluoromethoxy)-3-fluorophenyl]pyrimidine-2,4-diamine] yielded a melting point of 185 to 186 °C. The compound further registered an EC50 in data set [1] of 10 to 100 nM.

`Nc1cc(-n2c(C(F)F)nc3ccc(F)cc32)nc(Nc2ccc(C(F)(F)F)cc2)n1` [Cpd 33, 6-[2-(difluoromethyl)-6-fluoro-1H-benzimidazol-1-yl]-N^2-[4-(trifluoromethyl)phenyl]pyrimidine-2,4-diamine] had a melting point of 201 to 203 °C. The EC50 in data set [1] fell in the range of 10 to 100 nM.

Compound `Nc1cc(-c2c(C(F)F)nc3ccc(F)cn23)nc(Nc2ccc(C(F)(F)F)cc2)n1` [Cpd 63, 6-[2-(difluoromethyl)-6-fluoroimidazo[1,2-a]pyridin-3-yl]-N^2-[4-(trifluoromethyl)phenyl]pyrimidine-2,4-diamine] registered a melting point of 242 to 245 °C. The EC50 in data set [1] was 100 to 3000 nM.

Regarding `Nc1cc(-n2c(C3CC3)nc3ccc(F)cc32)nc(Nc2ccc(OC(F)F)cc2)n1` [Cpd 70, 6-(2-cyclopropyl-6-fluoro-1H-benzimidazol-1-yl)-N^2-[4-(difluoromethoxy)phenyl]pyrimidine-2,4-diamine], the melting point is 177 to 179 °C. Also, the EC50 in data set [1] lay in the range of 10 to 100 nM.

Consider `CCc1nc2ccc(F)cc2n1-c1cc(N)nc(Nc2ccc(OC(F)F)cc2)n1` [Cpd 71, N^2-[4-(difluoromethoxy)phenyl]-6-(2-ethyl-6-fluoro-1H-benzimidazol-1-yl)pyrimidine-2,4-diamine], for which the melting point was in the range of 171 to 173 °C. In data set [1], this compound came in with an EC50 of 10 to 100 nM.

The compound `COCc1nc2ccccc2n1-c1cc(N)nc(Nc2ccc(C(F)(F)F)cc2)n1` [Cpd 73, 6-[2-(methoxymethyl)-1H-benzimidazol-1-yl]-N^2-[4-(trifluoromethyl)phenyl]pyrimidine-2,4-diamine] registered a melting point of 209 to 211 °C. Besides, the EC50 in data set [1] was 100 to 3000 nM.

In turn, `CC(C)c1nc2ccccc2n1-c1cc(N)nc(Nc2ccc(C(F)(F)F)cc2)n1` [Cpd 74, 6-[2-(propan-2-yl)-1H-benzimidazol-1-yl]-N^2-[4-(trifluoromethyl)phenyl]pyrimidine-2,4-diamine] showed a melting point of 168 to 171 °C. The EC50 in data set [1] fell in the range of 100 to 3000 nM.

For the compound `COCc1nc2ccc(F)cc2n1-c1cc(N)nc(Nc2ccc(OC(F)F)cc2)n1` [Cpd 78, N^2-[4-(difluoromethoxy)phenyl]-6-[6-fluoro-2-(methoxymethyl)-1H-benzimidazol-1-yl]pyrimidine-2,4-diamine], the melting point lay within 120 to 122 °C. The compound also returned an EC50 in data set [1] of 10 to 100 nM.

`CC(C)c1nc2ccc(F)cc2n1-c1cc(N)nc(Nc2ccc(OC(F)F)cc2)n1` [Cpd 79, N^2-[4-(difluoromethoxy)phenyl]-6-[6-fluoro-2-(propan-2-yl)-1H-benzimidazol-1-yl]pyrimidine-2,4-diamine] returned a melting point of 167 to 169 °C. Also, in data set [1], the EC50 is 10 to 100 nM.

`Nc1cc(-n2c(C3CC3)nc3cc(F)ccc32)nc(Nc2ccc(OC(F)F)cc2)n1` [Cpd 80, 6-(2-cyclopropyl-5-fluoro-1H-benzimidazol-1-yl)-N^2-[4-(difluoromethoxy)phenyl]pyrimidine-2,4-diamine] returned a melting point of 136 to 138 °C. The compound further yielded an EC50 in data set [1] of 10 to 100 nM.

For the compound `CC(C)c1nc2cc(F)ccc2n1-c1cc(N)nc(Nc2ccc(OC(F)F)cc2)n1` [Cpd 81, N^2-[4-(difluoromethoxy)phenyl]-6-[5-fluoro-2-(propan-2-yl)-1H-benzimidazol-1-yl]pyrimidine-2,4-diamine], the melting point lay within 118 to 120 °C. The compound further had an EC50 in data set [1] of 100 to 3000 nM.

The compound `Nc1cc(-n2c(C(F)F)nc3ccccc32)nc(Nc2ccc(OC(F)F)cc2)n1` [Cpd 88, N^2-[4-(difluoromethoxy)phenyl]-6-[2-(difluoromethyl)-1H-benzimidazol-1-yl]pyrimidine-2,4-diamine] showed a melting point of 114 to 115 °C. The same compound registered an EC50 in data set [1] of 1 to 10 nM.

`CC(C)c1nc2ccccc2n1-c1cc(N)nc(Nc2ccc(OC(F)F)cc2)n1` [Cpd 89, N^2-[4-(difluoromethoxy)phenyl]-6-[2-(propan-2-yl)-1H-benzimidazol-1-yl]pyrimidine-2,4-diamine] returned a melting point of 184 to 187 °C. In addition, in data set [1], the EC50 lay within 10 to 100 nM.

As to `Nc1cc(-n2c(C3CC3)nc3cc(F)ccc32)nc(Nc2ccc(C(F)(F)F)cc2)n1` [Cpd 103, 6-(2-cyclopropyl-5-fluoro-1H-benzimidazol-1-yl)-N^2-[4-(trifluoromethyl)phenyl]pyrimidine-2,4-diamine], the melting point lay within 237 to 238 °C. Besides, in data set [1], the EC50 was 10 to 100 nM.

In turn, `Cc1nc2cc(F)ccc2n1-c1cc(N)nc(Nc2ccc(OC(F)F)c(F)c2)n1` [Cpd 105, N^2-[4-(difluoromethoxy)-3-fluorophenyl]-6-(5-fluoro-2-methyl-1H-benzimidazol-1-yl)pyrimidine-2,4-diamine] yielded a melting point of 172 to 173 °C. The compound further yielded an EC50 in data set [1] of 10 to 100 nM.

In turn, `COc1ccn2nc(C3CC3)c(-c3cc(N)nc(Nc4ccc(C(F)(F)F)cc4)n3)c2c1` [Cpd 106, 6-(2-cyclopropyl-5-methoxypyrazolo[1,5-a]pyridin-3-yl)-N^2-[4-(trifluoromethyl)phenyl]pyrimidine-2,4-diamine] gave a melting point of 172 to 174 °C. Also, the EC50 in data set [1] fell in the range of 100 to 3000 nM.

The compound `CCc1nn2ccc(F)cc2c1-c1cc(N)nc(Nc2ccc(C(F)(F)F)cc2)n1` [Cpd 111, 6-(2-ethyl-5-fluoropyrazolo[1,5-a]pyridin-3-yl)-N^2-[4-(trifluoromethyl)phenyl]pyrimidine-2,4-diamine] showed a melting point of 153 to 157 °C. The same compound returned an EC50 in data set [1] of 10 to 100 nM.

On to `Cc1nn2c(=O)n(C)c(C)cc2c1-c1cc(N)nc(Nc2ccc(C(F)(F)F)cc2)n1` [Cpd 117, 3-(6-amino-2-{[4-(trifluoromethyl)phenyl]amino}pyrimidin-4-yl)-2,5,6-trimethylpyrazolo[1,5-c]pyrimidin-7(6H)-one], for which the melting point is 270 to 273 °C. In addition, the EC50 in data set [1] fell in the range of 100 to 3000 nM.

Compound `Nc1cc(-c2c(C3CC3)nn3ccccc23)nc(Nc2ccc(C(F)(F)F)cc2)n1` [Cpd 126, 6-(2-cyclopropylpyrazolo[1,5-a]pyridin-3-yl)-N^2-[4-(trifluoromethyl)phenyl]pyrimidine-2,4-diamine] displayed a melting point of 181 to 183 °C. This compound came in with an EC50 in data set [1] of 100 to 3000 nM.

In the case of `COc1ccc(Nc2nc(N)cc(-n3c(C)nc4ccccc43)n2)cc1` [Cpd 129, N^2-(4-methoxyphenyl)-6-(2-methyl-1H-benzimidazol-1-yl)pyrimidine-2,4-diamine], the melting point lay in the range of 149 to 150 °C. The compound also gave an EC50 in data set [1] not above 1 nM.

For the compound `Cc1nc2ccccc2n1-c1cc(N)nc(Nc2ccc3c(c2)OCO3)n1` [Cpd 130, N^2-(1,3-benzodioxol-5-yl)-6-(2-methyl-1H-benzimidazol-1-yl)pyrimidine-2,4-diamine], the melting point is 118 to 119 °C. The EC50 in data set [1] lay within 1 to 10 nM.

Turning to `Cc1ccc(Nc2nc(N)cc(-n3c(C)nc4ccc(F)cc43)n2)cc1` [Cpd 134, 6-(6-fluoro-2-methyl-1H-benzimidazol-1-yl)-N^2-(4-methylphenyl)pyrimidine-2,4-diamine], the melting point was 118 to 120 °C. The EC50 in data set [1] lay in the range of 1 to 10 nM.

`Cc1nc2ccc(F)cc2n1-c1cc(N)nc(Nc2ccc(Cl)cc2)n1` [Cpd 135, N^2-(4-chlorophenyl)-6-(6-fluoro-2-methyl-1H-benzimidazol-1-yl)pyrimidine-2,4-diamine] came in with a melting point of 149 to 151 °C. Also, the EC50 in data set [1] was 10 to 100 nM.

On to `Cc1nc2ccc(F)cc2n1-c1cc(N)nc(Nc2ccc(N(C)C)cc2)n1` [Cpd 136, N^2-[4-(dimethylamino)phenyl]-6-(6-fluoro-2-methyl-1H-benzimidazol-1-yl)pyrimidine-2,4-diamine], for which the melting point was in the range of 232 to 235 °C. The compound further came in with an EC50 in data set [1] of 1 to 10 nM.

`COc1cccc(Nc2nc(N)cc(-n3c(C)nc4cc(F)c(F)cc43)n2)c1` [Cpd 196, 6-(5,6-difluoro-2-methyl-1H-benzimidazol-1-yl)-N^2-(3-methoxyphenyl)pyrimidine-2,4-diamine] had a concentration for a half-maximal effect (EC50) in data set [1] of 100 to 3000 nM.

`COc1ccc(Nc2nc(N)c(Cl)c(-n3c(C)nc4ccccc43)n2)cc1` [Cpd 197, 5-chloro-N^2-(4-methoxyphenyl)-6-(2-methyl-1H-benzimidazol-1-yl)pyrimidine-2,4-diamine] registered an EC50 in data set [1] of 100 to 3000 nM.

Turning to `Cc1noc(C)c1-c1cc(N)nc(Nc2ccc(Cl)cc2)n1` [Cpd 198, N^2-(4-chlorophenyl)-6-(3,5-dimethylisoxazol-4-yl)pyrimidine-2,4-diamine], in data set [1], the EC50 lay within 100 to 3000 nM.

Compound `Cc1nc2cc(F)ccc2n1-c1cc(N)[n+]([O-])c(Nc2ccc(C(F)(F)F)cc2)n1` [Cpd 199, 6-(5-fluoro-2-methyl-1H-benzimidazol-1-yl)-N^2-[4-(trifluoromethyl)phenyl]pyrimidine-2,4-diamine 3-oxide] returned an EC50 in data set [1] of 100 to 3000 nM.
